Values quoted from earlier work in patent publication US10864193B2, “Parasiticidal compositions comprising fipronil at high concentrations” (BOEHRINGER INGELHEIM ANIMAL HEALTH USA INC., priority 2014, dated 2020).

Conditions: beagle dogs, spot-on administration, 14C radiolabeled drug

## N#Cc1nn(-c2c(Cl)cc(C(F)(F)F)cc2Cl)c(N)c1[S+]([O-])C(F)(F)F (stereo not shown) [fipronil, 5-amino-3-cyano-1-(2,6-dichloro-4-trifluoromethylphenyl)-4-trifluoromethylsulfinylpyrazole]
  time persistently detected in the whole skin after treatment: up to 56 days
